Data taken from patent US20260285850A1, “SUBSTITUTED OXAZOLIDINONES AND IMIDAZOLINONES AS HERBICIDES” (FMC CORPORATION, priority 2023, published 2026).

Key:
Format in all cases: in vivo
[1] = test system: barnyardgrass (Echinochloa crus-galli); assay: Test A preemergence soil spray, visual injury rating 0-100; settings: 16 g ai/ha, 0 to 100 scale, 10 days
In short: (§1)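 Visual injury, scored 0-100 (100 = complete control) against untreated plants, 10 days after greenhouse treatment. Test chemicals in surfactant-containing non-phytotoxic solvent were applied in loam soil and sand, as a preemergence soil spray on seeds or postemergence to plants at the one- to two-leaf stage.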

[2] = test system: blackgrass (Alopecurus myosuroides); assay: as above; settings: 16 g ai/ha, 0 to 100 scale, 10 days
In short: as §1

corn (Zea mays) [3] = assay: as above; settings: 16 g ai/ha, 0 to 100 scale, 10 days
In short: as §1

[4] = test system: green foxtail (Setaria viridis); assay: as above; settings: 16 g ai/ha, 0 to 100 scale, 10 days
In short: as §1

kochia (Bassia scoparia) [5] = assay: as above; settings: 16 g ai/ha, 0 to 100 scale, 10 days
In short: as §1

[6] = test system: oat, wild (wild oat, Avena fatua); assay: as above; settings: 16 g ai/ha, 0 to 100 scale, 10 days
In short: as §1

[7] = test system: palmer (palmer amaranth, palmer pigweed, Amaranthus palmeri); assay: as above; settings: 16 g ai/ha, 0 to 100 scale, 10 days
In short: as §1

[8] = test system: ragweed (common ragweed, Ambrosia artemisiifolia); assay: as above; settings: 16 g ai/ha, 0 to 100 scale, 10 days
In short: as §1

[9] = test system: ryegrass, Italian (italian ryegrass, Lolium multiflorum); assay: as above; settings: 16 g ai/ha, 0 to 100 scale, 10 days
In short: as §1

soybean (Glycine max) [10] = assay: as above; settings: 16 g ai/ha, 0 to 100 scale, 10 days
In short: as §1

[11] = test system: wheat (Triticum aestivum); assay: as above; settings: 16 g ai/ha, 0 to 100 scale, 10 days
In short: as §1

[12] = test system: barnyardgrass (Echinochloa crus-galli); assay: Test A postemergence application, visual injury rating 0-100; settings: Postemergence, 16 g ai/ha, greenhouse 10 days; 0 no effect, 100 complete control
In short: as §1

[13] = test system: blackgrass (Alopecurus myosuroides); assay: as above; settings: Postemergence, 16 g ai/ha, greenhouse 10 days; 0 no effect, 100 complete control
In short: as §1

corn (Zea mays) [14] = assay: as above; settings: Postemergence, 16 g ai/ha, greenhouse 10 days; 0 no effect, 100 complete control
In short: as §1

[15] = test system: galium (catchweed bedstraw, Galium aparine); assay: as above; settings: Postemergence, 16 g ai/ha, greenhouse 10 days; 0 no effect, 100 complete control
In short: as §1

[16] = test system: green foxtail (Setaria viridis); assay: as above; settings: Postemergence, 16 g ai/ha, greenhouse 10 days; 0 no effect, 100 complete control
In short: as §1

[17] = test system: horseweed (Erigeron canadensis); assay: as above; settings: Postemergence, 16 g ai/ha, greenhouse 10 days; 0 no effect, 100 complete control
In short: as §1

kochia (Bassia scoparia) [18] = assay: as above; settings: Postemergence, 16 g ai/ha, greenhouse 10 days; 0 no effect, 100 complete control
In short: as §1

[19] = test system: oat, wild (wild oat, Avena fatua); assay: as above; settings: Postemergence, 16 g ai/ha, greenhouse 10 days; 0 no effect, 100 complete control
In short: as §1

[20] = test system: palmer (palmer amaranth, palmer pigweed, Amaranthus palmeri); assay: as above; settings: Postemergence, 16 g ai/ha, greenhouse 10 days; 0 no effect, 100 complete control
In short: as §1

[21] = test system: ragweed (common ragweed, Ambrosia artemisiifolia); assay: as above; settings: Postemergence, 16 g ai/ha, greenhouse 10 days; 0 no effect, 100 complete control
In short: as §1

[22] = test system: ryegrass, Italian (italian ryegrass, Lolium multiflorum); assay: as above; settings: Postemergence, 16 g ai/ha, greenhouse 10 days; 0 no effect, 100 complete control
In short: as §1

soybean (Glycine max) [23] = assay: as above; settings: Postemergence, 16 g ai/ha, greenhouse 10 days; 0 no effect, 100 complete control
In short: as §1

[24] = test system: wheat (Triticum aestivum); assay: as above; settings: Postemergence, 16 g ai/ha, greenhouse 10 days; 0 no effect, 100 complete control
In short: as §1

[25] = test system: barnyardgrass (Echinochloa crusgalli); assay: Test B flooded paddy test, visual plant response rating 0-100; settings: 250 g ai/ha, Flood, applied to paddy water, evaluated after 13 days
In short: (§2)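 2-leaf plants; flood 3 cm over soil; compound dosed into paddy water; depth kept constant; greenhouse 13 d; visual scoring vs controls. Dash = no result.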

[26] = test system: ducksalad (Heteranthera limosa); assay: as above; settings: 250 g ai/ha, Flood, applied to paddy water, evaluated after 13 days
In short: as §2

rice (Oryza sativa) = assay: as above; settings: 250 g ai/ha, Flood, applied to paddy water, evaluated after 13 days
In short: as §2

[27] = test system: sedge, umbrella (small-flower umbrella sedge, Cyperus difformis); assay: as above; settings: 250 g ai/ha, Flood, applied to paddy water, evaluated after 13 days
In short: as §2

## CC1(C(=O)NC2C=CC(C(=O)O)C2)CN(c2cc(F)c(F)c(F)c2)C(=O)O1 (stereo not shown) [Compound 123]
[1]
  Barnyardgrass plant response rating: 0
[2]
  Blackgrass plant response rating: 0
Corn (Zea mays) [3]
  Corn plant response rating: 0
[4]
  Foxtail, Green plant response rating: 0
Kochia (Bassia scoparia) [5]
  Kochia plant response rating: 0
[6]
  Oat, Wild plant response rating: 10
[7]
  Pigweed, Palmer plant response rating: 0
[8]
  Ragweed plant response rating: 0
[9]
  Ryegrass, Italian plant response rating: 0
Soybean (Glycine max) [10]
  Soybean plant response rating: 0
[11]
  Wheat plant response rating: 80
[12]
  Barnyardgrass plant response rating (0 to 100 scale): 60
[13]
  Blackgrass plant response rating (0 to 100 scale): 90
Corn (Zea mays) [14]
  Corn plant response rating (0 to 100 scale): 70
[15]
  Galium plant response rating (0 to 100 scale): 30
[16]
  Foxtail, Green plant response rating (0 to 100 scale): 30
[17]
  Horseweed plant response rating (0 to 100 scale): 0
Kochia (Bassia scoparia) [18]
  Kochia plant response rating (0 to 100 scale): 0
[19]
  Oat, Wild plant response rating (0 to 100 scale): 60
[20]
  Pigweed, Palmer plant response rating (0 to 100 scale): 20
[21]
  Ragweed plant response rating (0 to 100 scale): 0
[22]
  Ryegrass, Italian plant response rating (0 to 100 scale): 60
Soybean (Glycine max) [23]
  Soybean plant response rating (0 to 100 scale): 60
[24]
  Wheat plant response rating (0 to 100 scale): 80
[25]
  Plant response rating, Barnyardgrass (0 to 100 scale, 0 is no effect and 100 is complete control): 0
[26]
  Plant response rating, Ducksalad (0 to 100 scale, 0 is no effect and 100 is complete control): 55
Rice (Oryza sativa)
  Plant response rating, Rice (0 to 100 scale, 0 is no effect and 100 is complete control): 10
[27]
  Plant response rating, Sedge, Umbrella (0 to 100 scale, 0 is no effect and 100 is complete control): 0
